Assays:
Male Wistar rats [1] = assay: Acute activity after single p.o. administration, paw withdrawal test (Randall and Selitto), % of analgesia; assay type: in vivo, rat; conditions: for analgesic activity on separate administration (tramadol study) / analgesic activity / pain perception threshold on separate administration (dihydrocodeine study) / analgesic activity on separate administration (codeine study) / analgesic activity / pain threshold when administered alone (morphine study) / analgesic activity on separate administration (oxycodone study): single separate administration p.o., magnesium salts 15 mg magnesium ions/kg; for analgesic activity on separate administration (tramadol study): tramadol 125 mg/kg; for analgesic activity / pain perception threshold on separate administration (dihydrocodeine study): dihydrocodeine 50 mg/kg; for analgesic activity on separate administration (codeine study): codeine 175 mg/kg; for analgesic activity / pain threshold when administered alone (morphine study): morphine 15 mg/kg; for analgesic activity on separate administration (oxycodone study): oxycodone 5 mg/kg
Description: (§1) Male Wistar rats (250-300 g) were housed in a room maintained at a temperature of 20±2° C. under 12 h-12 h light-dark cycles. The animals had free access to food and water. Experimental groups consisted of six rats.
(§2) Drugs • Morphine at a dose of 15 mg/kg, codeine at a dose of 175 mg/kg, tramadol at a dose of 125 mg/kg and oxycodone at a dose of 5 mg/kg were dissolved in distilled water; • Dihydrocodeine at a dose of 50 mg/kg was suspended in 1% solution of methylcellulose; • Magnesium lactate (in micronized form)—at a dose of 15 mg magnesium ions/kg (150 mg of magnesium lactate/kg) was suspended in 0.5% solution of methylcellulose; • Magnesium lactate in normal (non-micronized) form—at doses of 15 or 30 mg magnesium ions/kg (150 or 300 mg of magnesium lactate/kg, respectively) was suspended in 0.5% solution of methylcellulose; • Magnesium citrate (in micronized and normal form)—at a dose of 15 mg magnesium ions/kg (112 mg of magnesium citrate/kg) was dissolved in distilled water; • Magnesium hydroaspartate (in micronized and normal form)—at a dose of 15 mg magnesium ions/kg (216 mg of magnesium hydroaspartate/kg) was suspended in 0.5% solution of methylcellulose; • Magnesium chloride (in micronized and normal form)—at a dose of 15 mg magnesium ions/kg (59.5 mg of magnesium chloride/kg) was dissolved in distilled water; • Control animals received a 0.5% solution of methylcellulose, a 1% solution of methylcellulose and distilled water, respectively, according to the same time schedule.
Magnesium salts and investigated opioids were administered concomitantly.
The micronized form of magnesium salts used in experiments contains particles of magnesium compounds of size D90<50 μm.
The normal magnesium salts form used in experiments contains particles of sizes commonly available in the market.
Acute activity of investigated drugs was measured in short time periods (from 5 to 300 min) after single administration.
(§3) All drugs were administered per os (p.o.); literally—orally. However, in practice, drugs were administered intragastric via a gastric tube.
(§4) Changes in pain thresholds were determined using a mechanical stimuli—the modification of the classic paw withdrawal test described by Randall and Selitto [1957]. In order to produce mechanical stimulation, progressively increasing pressure was applied to the dorsal surface of the rat's paw using an analgesymeter. The instrument used increased the force on the paw at a rate of 32 grams per second. The nociceptive threshold was defined as force in grams, at which the rat attempted to withdraw its right hindpaw and values of pressure were recorded at this very moment. At least two observers controlled the response.
(§5) Nociceptive thresholds (average of two trials) measured for each animal before single administration of investigated drugs (measurement of acute activity) or in day 0 before the first administration (measurement of prolonged activity) constituted the baseline pain threshold—A. Next, measurements of the withdrawal threshold to mechanical stimuli were performed at 5, 15, 30, 60, 90, 120, 180, 240, 300 min after drug administration (measurements of acute activity) or every day before drug administration (measurements of prolonged activity)—B.
(§6) In all experimental sessions (i.e. every day, each drug investigated) values of thresholds obtained (B) were compared to baseline (A).
(§7) Changes in pain threshold were calculated as a percent of baseline value according to the following formula:
(§8) [formula] • C—% of analgesia; A—pressure (in g), baseline pain threshold; B—pressure (in g) in consecutive measurements.
(§9) Percents of analgesia values calculated as above for individual animals were subsequently used to calculate average values in particular experimental groups and for statistical analysis.
The results are expressed as mean values±standard deviation of the mean (±S.E.M.).

Male Wistar rats [2] = assay: Prolonged activity on repeated daily p.o. administration (7 or 10 days), paw withdrawal test (Randall and Selitto); assay type: in vivo, rat; conditions: separate administration p.o., magnesium lactate micronized 15 or normal 30 mg magnesium ions/kg
Description: as §1, §2
Prolonged activity of the investigated drugs was measured the following day after initial administration, but before the next administration as well as after cessation of administration. Drugs were administered for seven consecutive days (administration of morphine, codeine, dihydrocodeine, oxycodone) or for ten days (administration of tramadol).
as §3, §4, §5, §6, §7, §8, §9
The results are expressed as mean values±standard […] of the mean (±S.E.M.). The statistical significance of differences between groups was evaluated by Student's t-test. p≦0.05 was accepted as statistically significant.

[3] = single administration, 15 mg magnesium ions/kg p.o. with codeine 175 mg/kg p.o.
[4] = single administration, 15 mg magnesium ions/kg p.o. with dihydrocodeine 50 mg/kg p.o.
[5] = single administration, 15 mg magnesium ions/kg p.o. with morphine 15 mg/kg p.o.
[6] = single administration, 15 mg magnesium ions/kg p.o. with oxycodone 5 mg/kg p.o.

Molecule: COc1cccc(C2(O)CCCCC2CN(C)C)c1 (stereo not shown) [tramadol, reference compound]
- analgesic activity on separate administration (tramadol study) (Male Wistar rats [1]): did not exhibit analgesic activity
- pain threshold on separate administration, 10 days (tramadol study) (Male Wistar rats [2]; tramadol 125 mg/kg): insignificantly intensified the threshold for mechanical nociceptive stimuli from days 6 to 10

Molecule: COc1ccc2c3c1O[C@H]1[C@@H](O)CC[C@H]4[C@@H](C2)N(C)CC[C@@]341 [dihydrocodeine, reference compound]
- analgesic activity / pain perception threshold on separate administration (dihydrocodeine study) (Male Wistar rats [1]): only insignificantly raised the pain perception threshold (90-120 min)
- pain threshold on separate administration, 7 days (dihydrocodeine study) (Male Wistar rats [2]; dihydrocodeine 50 mg/kg): insignificantly raised the nociceptive stimulus threshold on days 6 and 7

Molecule: N[C@@H](CC(=O)O)C(=O)O [normal magnesium hydroaspartate, Magnesium hydroaspartate]
- activity on codeine analgesia compared to micronized form (Male Wistar rats [1]; [3]): significantly weaker
- activity on dihydrocodeine analgesia in comparison (to micronized form / to magnesium lactate) (Male Wistar rats [1]; [4]): significantly weaker
- activity on morphine analgesia in comparison (to micronized magnesium lactate / to micronized form) (Male Wistar rats [1]; [5]): much weaker
- activity on oxycodone analgesia compared to micronized form (Male Wistar rats [1]; [6]): enhanced oxycodone analgesia significantly less when compared to the micronized form
- analgesic activity on separate administration (codeine study) (Male Wistar rats [1]): did not exhibit analgesic activity
- analgesic activity / pain perception threshold on separate administration (dihydrocodeine study) (Male Wistar rats [1]): did not exhibit analgesic activity
- analgesic activity / pain threshold when administered alone (morphine study) (Male Wistar rats [1]): did not alter the pain threshold
- analgesic activity on separate administration (oxycodone study) (Male Wistar rats [1]): showed no analgesic activity
- analgesic activity on separate administration (tramadol study) (Male Wistar rats [1]): did not exhibit analgesic activity

Molecule: Magnesium citrate [micronized magnesium citrate]
- effect on analgesic activity of codeine (Male Wistar rats [1]; [3]): also enhanced codeine analgesia
- activity on dihydrocodeine analgesia in comparison (to micronized form / to magnesium lactate) (Male Wistar rats [1]; [4]): lasted a shorter time
- effect on dihydrocodeine analgesia (Male Wistar rats [1]; [4]): also enhanced dihydrocodeine analgesia
- activity on morphine analgesia in comparison (to micronized magnesium lactate / to micronized form) (Male Wistar rats [1]; [5]): weaker, although significant
- effect on morphine analgesia (Male Wistar rats [1]; [5]): also enhanced morphine analgesia
- enhancement of morphine analgesia lasted up to (Male Wistar rats [1]; [5]): 120 min
- effect on antinociceptive activity of tramadol (Male Wistar rats [1]; single administration, 15 mg magnesium ions/kg p.o. with tramadol 125 mg/kg p.o.): also enhanced tramadol analgesia
- analgesic activity on separate administration (codeine study) (Male Wistar rats [1]): did not exhibit analgesic activity
- analgesic activity / pain perception threshold on separate administration (dihydrocodeine study) (Male Wistar rats [1]): did not exhibit analgesic activity
- analgesic activity / pain threshold when administered alone (morphine study) (Male Wistar rats [1]): did not alter the pain threshold
- analgesic activity on separate administration (oxycodone study) (Male Wistar rats [1]): showed no analgesic activity
- analgesic activity on separate administration (tramadol study) (Male Wistar rats [1]): did not exhibit analgesic activity

Molecule: Magnesium citrate
- effect on oxycodone analgesia (Male Wistar rats [1]; [6]): also enhanced oxycodone analgesia

Molecule: N[C@@H](CC(=O)[O-])C(=O)[O-].N[C@@H](CC(=O)[O-])C(=O)[O-].[H+].[H+].[Mg+2] [magnesium hydroaspartate, Magnesium hydroaspartate]
- effect on oxycodone analgesia (Male Wistar rats [1]; [6]): also enhanced oxycodone analgesia

Molecule: [Cl-].[Cl-].[Mg+2] [normal magnesium chloride, Magnesium chloride]
- activity on dihydrocodeine analgesia in comparison (to micronized form / to magnesium lactate) (Male Wistar rats [1]; [4]): somewhat weaker

From patent US9101577B2, “Analgesic pharmaceutical composition for oral administration” (Warszawski Uniwersytet Medyczny, priority 2011, dated 2015)
